The source of these data is patent publication US20090069320A1, “Substituted 4-Amino-Quinazoline Compounds with Metabotropic Glutamate Receptor Regulating Activity and Uses Thereof” (Gruenenthal GmbH, priority 2006, published 2009).

Where a name gives a salt, the structure may show the parent alone.

One experiment deals with T1, mGluR5 receptor (Sus scrofa, UniProt I3LUI7).
T1 construct: 450 μg of protein from brain homogenate with 5 nM ^3[H]-MPEP; from tissue; host or cells: pig brain halves without medulla, cerebellum and pons
T1 sequence (I3LUI7 19-1212): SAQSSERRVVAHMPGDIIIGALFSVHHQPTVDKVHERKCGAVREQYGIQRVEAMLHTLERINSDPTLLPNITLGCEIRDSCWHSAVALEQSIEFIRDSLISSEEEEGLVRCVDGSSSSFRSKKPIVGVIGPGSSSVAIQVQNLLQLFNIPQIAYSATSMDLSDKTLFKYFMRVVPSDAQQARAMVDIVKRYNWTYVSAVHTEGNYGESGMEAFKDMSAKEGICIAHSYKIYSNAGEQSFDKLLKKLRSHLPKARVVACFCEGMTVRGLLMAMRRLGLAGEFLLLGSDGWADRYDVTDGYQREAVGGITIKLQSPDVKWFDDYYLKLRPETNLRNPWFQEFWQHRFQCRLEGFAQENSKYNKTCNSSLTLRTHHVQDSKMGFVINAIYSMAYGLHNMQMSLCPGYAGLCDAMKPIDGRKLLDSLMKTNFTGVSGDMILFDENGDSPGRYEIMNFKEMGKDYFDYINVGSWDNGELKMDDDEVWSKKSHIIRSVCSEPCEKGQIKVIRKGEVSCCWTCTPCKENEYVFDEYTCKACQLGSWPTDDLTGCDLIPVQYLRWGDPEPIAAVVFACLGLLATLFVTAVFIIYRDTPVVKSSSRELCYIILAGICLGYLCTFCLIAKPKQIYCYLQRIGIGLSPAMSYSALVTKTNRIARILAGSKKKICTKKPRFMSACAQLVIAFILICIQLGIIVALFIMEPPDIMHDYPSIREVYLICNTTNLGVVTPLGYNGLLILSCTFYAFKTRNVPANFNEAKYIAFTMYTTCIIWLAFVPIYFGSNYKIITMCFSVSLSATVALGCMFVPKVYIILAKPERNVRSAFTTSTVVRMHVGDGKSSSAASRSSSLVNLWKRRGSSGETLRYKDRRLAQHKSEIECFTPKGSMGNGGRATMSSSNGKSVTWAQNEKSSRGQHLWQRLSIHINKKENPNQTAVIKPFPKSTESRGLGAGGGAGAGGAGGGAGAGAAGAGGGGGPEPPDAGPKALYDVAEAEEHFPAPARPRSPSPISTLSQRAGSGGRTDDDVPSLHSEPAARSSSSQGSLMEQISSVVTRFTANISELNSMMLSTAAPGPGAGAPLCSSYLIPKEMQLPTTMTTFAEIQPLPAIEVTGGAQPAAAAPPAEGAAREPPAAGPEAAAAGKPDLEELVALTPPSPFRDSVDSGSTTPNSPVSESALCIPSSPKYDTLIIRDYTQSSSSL
The experiment can be described thus: [3H]-MPEP mGluR5 receptor binding assay (pig brain homogenate). The conditions noted are these: 5 nM [3H]-MPEP, read-out: IC50 mGluR5 Receptor (pig) [^3H]-MPEP Bond. In outline:
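Compounds at 10 μM competed with 5 nM [3H]-MPEP for binding to pig brain membranes (450 μg protein) for 60 min at room temperature in pH 8.0 Hepes buffer. Bound radioactivity was collected on glass-fibre filters and read by β-counting, with 10 μM unlabelled MPEP giving non-specific binding.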
On to `C=CCN(Cc1cccc(-c2ccc3ncnc(NC4CC4)c3c2)c1)C(C)=O` [Example 886, N-allyl-N-(3-(4-(cyclopropylamino)quinazolin-6-yl)benzyl)acetamide], for which the IC50 (commonly the concentration that inhibits the measured activity by half) worked out at 1980 nM.
In the case of `CC(C)(C)C(=O)N(Cc1cccc(-c2ccc3ncnc(NC4CC4)c3c2)c1)C1CC1` [Example 266, N-cyclopropyl-N-(3-(4-(cyclopropylamino)quinazolin-6-yl)benzyl)pivalamide], the IC50 amounted to 1270 nM.
`O=C(c1cccnc1)N(Cc1cccc(-c2ccc3ncnc(NC4CC4)c3c2)c1)C1CC1` [Example 248, N-cyclopropyl-N-[3-(4-cyclopropylamino-quinazolin-6-yl)-benzyl]-nicotinamide]: the IC50 was found to be 3150 nM.
Still for that read-out and setting: then `O=C1CCCC(=O)N1Cc1cc(-c2ccc3ncnc(NC4CC4)c3c2)ccc1F` [Example 278, 1-(5-(4-(cyclopropylamino)quinazolin-6-yl)-2-fluorobenzyl)piperidine-2,6-dione], with 350 nM.
Consider `O=C1CCC(=O)N1Cc1cc(F)cc(-c2ccc3ncnc(NC4CC4)c3c2)c1` [Example 889, 1-(3-(4-(cyclopropylamino)quinazolin-6-yl)-5-fluorobenzyl)pyrrolidine-2,5-dione], for which the IC50 was found to be 500 nM.
On the same count and under the same terms, then `O=S(=O)(c1ccccc1)N(Cc1cccc(-c2ccc3ncnc(NC4CC4)c3c2)c1)C1CC1` [Example 227, N-cyclopropyl-N-(3-(4-(cyclopropylamino)quinazolin-6-yl)benzyl)benzole sulfonamide], with 2570 nM; and `CS(=O)(=O)N(Cc1cccc(-c2ccc3ncnc(NC4CC4)c3c2)c1)Cc1ccco1` [Example 215, N-(3-(4-(cyclopropylamino)quinazolin-6-yl)benzyl)-N-(furan-2-yl-methyl)methane sulfonamide], with 3610 nM.

Staying with this experiment, now noted: 10 μM compound, 5 nM [3H]-MPEP.
Turning to `O=S(=O)(c1cccc(C(F)(F)F)c1)N(Cc1cccc(-c2cc(F)c3ncnc(NC4CC4)c3c2)c1)C1CC1` [Example 686, N-cyclopropyl-N-(3-(4-(cyclopropylamino)-8-fluoroquinazolin-6-yl)benzyl)-3-(trifluoromethyl)benzole sulfonamide], the “% Inhibition of mGluR5 Receptor (pig) [^3H]-MPEP Bond at 10 μM” value (“% Inhibition of mGluR5 Receptor (pig)” below) was 68%.
For `O=S(=O)(c1cccc(C(F)(F)F)c1)N(Cc1cc(-c2ccc3ncnc(NC4CC4)c3c2)ccn1)C1CC1` [Example 858, N-cyclopropyl-N-((4-(4-(cyclopropylamino)quinazolin-6-yl)pyridin-2-yl)methyl)-3-(trifluoromethyl)benzole sulfonamide], the “% Inhibition of mGluR5 Receptor (pig)” value worked out at 85%.
Same read-out and setting: then `CC(C)(C)C(=O)N(Cc1cc(-c2ccc3ncnc(NC4CC4)c3c2)ccc1Cl)C1CC1` [Example 785, N-(2-chloro-5-(4-(cyclopropylamino)quinazolin-6-yl)benzyl)-N-cyclopropyl pivalamide], with 100%.
Consider `CC(C)(C)Nc1ncnc2ccc(-c3ccc(F)c(CN(C4CC4)S(=O)(=O)c4ccc(Cl)cc4Cl)c3)cc12` [Example 857, N-(5-(4-(tert-butylamino)quinazolin-6-yl)-2-fluorobenzyl)-2,4-dichloro-N-cyclopropyl benzole sulfonamide], for which the “% Inhibition of mGluR5 Receptor (pig)” value was found to be 36%.
On the same count and under the same terms, then `CC(C)(C)Nc1ncnc2ccc(-c3ccc(F)c(CN(C(=O)c4cccnc4)C4CC4)c3)cc12` [Example 838, N-(5-(4-(tert-butylamino)quinazolin-6-yl)-2-fluorobenzyl)-N-cyclopropyl nicotinamide], with 92%.

The experiment is the same for the next values; noted with them: 10 μM compound, 5 nM [3H]-MPEP, read-out: % Inhibition of mGluR5 Receptor (pig) [^3H]-MPEP Bond at 10 μM.
`COCCN(Cc1cccc(-c2ccc3ncnc(NC4CC4)c3c2)c1)C(C)=O` [Example 213, N-(3-(4-(cyclopropylamino)quinazolin-6-yl)benzyl)-N-(2-methoxyethyl)acetamide]: the inhibition (in general, the share of the control response that was lost under treatment) at 10 µM is 32%.
For `O=S(=O)(c1cccs1)N(Cc1cc(-c2ccc3ncnc(NC4CC4)c3c2)ccc1Cl)C1CC1` [Example 734, N-(2-chloro-5-(4-(cyclopropylamino)quinazolin-6-yl)benzyl)-N-cyclopropylthiophene-2-sulfonamide], the inhibition at 10 µM stood at 91%.
Regarding `CCCN(Cc1cccc(-c2ccc3ncnc(Nc4ccccc4)c3c2)c1)C(=O)CC#N` [Example 112, 2-cyano-N-[3-(4-phenylamino-quinazolin-6-yl)-benzyl]-N-propyl-acetamide], the inhibition at 10 µM stood at 33%.
As for `CN(c1ncnc2ccc(-c3ccc(F)c(CN(C(=O)c4cccs4)C4CC4)c3)cc12)C1CC1` [Example 427, N-cyclopropyl-N-(5-(4-(cyclopropyl(methyl)amino)quinazolin-6-yl)-2-fluorobenzyl)thiophene-2-carboxamide], the inhibition at 10 µM turned out to be 95%.
For the compound `CCCN(Cc1cccc(-c2ccc3ncnc(Nc4ccccc4)c3c2)c1)C(=O)c1ccccc1Cl` [Example 119, 2-chloro-N-[3-(4-phenylamino-quinazolin-6-yl)-benzyl]-N-propyl-benzamide], the inhibition at 10 µM amounted to 52%.
Consider `O=C(c1cccc(Br)n1)N(Cc1cccc(-c2ccc3ncnc(NC4CC4)c3c2)c1)C1CC1` [Example 163, 6-bromo-pyridine-2-carboxylic acid cyclopropyl-[3-(4-cyclopropylamino-quinazolin-6-yl)-benzyl]-amide], for which the inhibition at 10 µM was 89%.
The same measure, in the same setting: then `O=C(CCc1ccccc1)N(Cc1cc(-c2ccc3ncnc(NC4CC4)c3c2)ccc1Cl)C1CC1` [Example 756, N-(2-chloro-5-(4-(cyclopropylamino)quinazolin-6-yl)benzyl)-N-cyclopropyl-3-phenylpropanamide], with 69%.
For the compound `O=C(c1ccccc1C(F)(F)F)N(Cc1cccc(-c2ccc3ncnc(NC4CC4)c3c2)c1)C1CC1` [Example 167, N-cyclopropyl-N-[3-(4-cyclopropylamino-quinazolin-6-yl)-benzyl]-2-trifluoromethyl-benzamide], the inhibition at 10 µM came out at 98%.
For the compound `Cc1nc(NC2CC2)c2cc(-c3cccc(CN(C(=O)c4ccc(F)cc4F)C4CC4)c3)ccc2n1` [Example 517, N-cyclopropyl-N-(3-(4-(cyclopropylamino)-2-methylquinazolin-6-yl)benzyl)-2,4-difluorobenzamide], the inhibition at 10 µM was 59%.
For `Cc1cc2ncnc(NC3CC3)c2cc1-c1cccc(CN(C(=O)C2CCCCC2)C2CC2)c1` [Example 653, N-cyclopropyl-N-(3-(4-(cyclopropylamino)-7-methylquinazolin-6-yl)benzyl)cyclohexane carboxamide], the inhibition at 10 µM was determined as 66%.
For the compound `O=C(c1ccccc1Br)N(Cc1cccc(-c2ccc3ncnc(N4CCCC4)c3c2)c1)C1CC1` [Example 122, 2-bromo-N-cyclopropyl-N-[3-(4-pyrrolidin-1-yl-quinazolin-6-yl)-benzyl]-benzamide], the inhibition at 10 µM was 37%.
As for `CC(C)S(=O)(=O)N(Cc1cc(-c2ccc3ncnc(NC4CC4)c3c2)ccc1F)C1CC1` [Example 429, N-cyclopropyl-N-(5-(4-(cyclopropylamino)quinazolin-6-yl)-2-fluorobenzyl)propane-2-sulfonamide], the inhibition at 10 µM stood at 92%.
`O=C1CC2(CCCC2)CC(=O)N1Cc1cccc(-c2ccc3ncnc(NC4CC4)c3c2)c1` [Example 243, 8-[3-(4-cyclopropylamino-quinazolin-6-yl)-benzyl]-8-aza-spiro[4.5]decane-7,9-dione; hydrochloride]: the inhibition at 10 µM came to 39%.
The same measure, in the same setting: to `O=C(c1ccc(C(F)(F)F)cc1F)N(Cc1cc(-c2ccc3ncnc(NC4CC4)c3c2)ccn1)C1CC1` [Example 735, N-cyclopropyl-N-((4-(4-(cyclopropylamino)quinazolin-6-yl)pyridin-2-yl)methyl)-2-fluoro-4-(trifluoromethyl)benzamide] belongs 72%; to `CC(C)(C)Nc1ncnc2ccc(-c3ccc(F)c(CN(C(=O)Cc4ccccc4)C4CC4)c3)cc12` [Example 815, N-(5-(4-(tert-butylamino)quinazolin-6-yl)-2-fluorobenzyl)-N-cyclopropyl-2-phenylacetamide], 87%.
Turning to `Cc1cc(C(=O)N(Cc2cccc(-c3ccc4nc(C)nc(NC5CC5)c4c3)c2)C2CC2)n(C)n1` [Example 485, N-cyclopropyl-N-(3-(4-(cyclopropylamino)-2-methylquinazolin-6-yl)benzyl)-1,3-dimethyl-1H-pyrazole-5-carboxamide], the inhibition at 10 µM was 32%.
As for `O=C(COc1ccccc1)N(Cc1cccc(-c2ccc3ncnc(N4CCCC4)c3c2)c1)C1CC1` [Example 145, N-cyclopropyl-2-phenoxy-N-[3-(4-pyrrolidin-1-yl-quinazolin-6-yl)-benzyl]-acetamide], the inhibition at 10 µM is 53%.
For `O=C(c1ccncc1)N(Cc1cccc(-c2ccc3ncnc(NC4CC4)c3c2)c1)C1CC1` [Example 165, N-cyclopropyl-N-[3-(4-cyclopropylamino-quinazolin-6-yl)-benzyl]-isonicotinamide], the inhibition at 10 µM was 88%.
For `CCCN(Cc1cccc(-c2ccc3ncnc(Nc4ccccc4)c3c2)c1)C(=O)c1ccc(OC)cc1` [Example 94, 4-methoxy-N-[3-(4-phenylamino-quinazolin-6-yl)-benzyl]-N-propyl-benzamide], the inhibition at 10 µM worked out at 75%.
With `CNc1ncnc2ccc(-c3ccc(F)c(CN(C)C(=O)CN(C)C)c3)cc12` [Example 718, 2-(dimethylamino)-N-(2-fluoro-5-(4-(methylamino)quinazolin-6-yl)benzyl)-N-methylacetamide], the inhibition at 10 µM was 40%.
For `Cc1cc(C(=O)N(Cc2cccc(-c3cc4c(NC5CC5)ncnc4cc3C)c2)C2CC2)n(C)n1` [Example 706, N-cyclopropyl-N-(3-(4-(cyclopropylamino)-7-methylquinazolin-6-yl)benzyl)-1,3-dimethyl-1H-pyrazole-5-carboxamide], the inhibition at 10 µM stood at 69%.
